Patent US9035056B2, “Pyrido[4,3-b]indole and pyrido[3,4-b]indole derivatives and methods of use” (Medivation Technologies, Inc., priority 2011, dated 2015)

Columns and labels:
[1] = molecular target: T1, rat adrenergic α1B receptor (Rattus norvegicus, UniProt P15823); assay: Adrenergic α1B radioligand binding ([3H]Prazosin); conditions: 0.1 μM compound; 0.1 µM
T1 construct: rat adrenergic α1B receptor obtained from Wistar Rat liver; from tissue; host or cells: Wistar rat liver
T1 sequence (P15823 1-515): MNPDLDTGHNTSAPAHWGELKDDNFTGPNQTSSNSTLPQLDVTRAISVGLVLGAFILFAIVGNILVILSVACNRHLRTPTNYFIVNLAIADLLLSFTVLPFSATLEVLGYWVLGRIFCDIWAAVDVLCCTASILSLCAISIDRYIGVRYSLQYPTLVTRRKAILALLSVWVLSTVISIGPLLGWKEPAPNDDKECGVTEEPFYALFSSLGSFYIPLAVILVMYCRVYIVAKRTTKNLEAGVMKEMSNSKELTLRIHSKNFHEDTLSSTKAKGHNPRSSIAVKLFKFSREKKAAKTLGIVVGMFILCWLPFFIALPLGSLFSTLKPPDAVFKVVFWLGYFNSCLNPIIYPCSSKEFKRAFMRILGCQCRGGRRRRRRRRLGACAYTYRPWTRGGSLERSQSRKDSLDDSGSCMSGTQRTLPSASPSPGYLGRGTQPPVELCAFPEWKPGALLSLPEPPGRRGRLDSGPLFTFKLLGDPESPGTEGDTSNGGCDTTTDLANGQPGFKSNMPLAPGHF
Procedure: To evaluate in radioligand binding assays the activity of compounds of the invention, rat adrenergic α1B receptor obtained from Wistar Rat liver (Garcia-S'ainz, J. et al, Biochem. Biophys. Res. Commun. 186:760, 1992; Michel, A. et al, Br. J. Pharmacol. 98:883, 1989) in a modified Tris-HCl buffer (50 mM Tris-HCl buffer, pH 7.4, 0.5 mM EDTA) was used. Compounds of the invention were incubated with 0.25 nM [^3H]Prazosin for 60 min at 25° C. Non-specific binding was estimated in the presence of 10 μM phentolamine. Receptor proteins were filtered and washed, the filters were then counted to determine [^3H]Prazosin specifically bound. Compounds were screened at 1 μM or lower, using 1% DMSO as vehicle. Biochemical assay results are presented as the percent inhibition of specific binding in Table 3.

[2] = molecular target: T2, human recombinant adrenergic α2A receptor (Homo sapiens, UniProt P08913); assay: Adrenergic α2A radioligand binding ([3H]MK-912); conditions: 0.1 μM compound; 0.1 µM
T2 construct: expressed in transfected cells; host or cells: insect Sf9 cells
T2 sequence (P08913 1-465): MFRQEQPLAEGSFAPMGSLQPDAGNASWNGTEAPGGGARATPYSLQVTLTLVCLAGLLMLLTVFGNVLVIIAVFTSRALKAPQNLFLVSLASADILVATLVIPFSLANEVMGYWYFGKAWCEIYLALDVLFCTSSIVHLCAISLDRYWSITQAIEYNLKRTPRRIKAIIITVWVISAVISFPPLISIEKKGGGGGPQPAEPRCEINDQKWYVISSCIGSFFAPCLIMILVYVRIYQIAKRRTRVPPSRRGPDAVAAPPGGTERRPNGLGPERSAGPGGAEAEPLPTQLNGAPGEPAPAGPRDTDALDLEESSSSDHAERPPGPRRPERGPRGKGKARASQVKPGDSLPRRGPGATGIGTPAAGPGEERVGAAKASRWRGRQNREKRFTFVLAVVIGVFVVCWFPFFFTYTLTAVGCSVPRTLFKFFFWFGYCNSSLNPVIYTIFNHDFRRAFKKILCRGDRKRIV
Procedure: To evaluate in radioligand binding assays the activity of compounds of the invention, human recombinant adrenergic α2A receptor expressed in insect Sf9 cells (Uhlen, S. et al, J. Pharmacol. Exp. Ther. 271:1558, 1994) in a modified Tris-HCl buffer (50 mM Tris-HCl, pH 7.4, 12.5 mM MgCl2, 2 mM EDTA) was used. Compounds of invention were incubated with 1 nM [^3H]MK-912 for 60 min at 25° C. MK-912 is (2S-trans)-1,3,4,5′,6,6′,7,12b-octahydro-1′,3′-dimethyl-spiro[2H-benzofuro[2,3-a]quinolizine-2,4′(1′H)-pyrimidin]-2′(3′H)-one hydrochloride Non-specific binding was estimated in the presence of 10 μM WB-4101 (2-(2,6-Dimethoxyphenoxyethyl)aminomethyl-1,4-benzodioxane hydrochloride). Receptor proteins were filtered and washed, the filters were then counted to determine [^3H]MK-912 specifically bound. Compounds were screened at 1 μM or lower, using 1% DMSO as vehicle. Biochemical assay results are presented as the percent inhibition of specific binding in Table 3.

[3] = molecular target: T3, human recombinant adrenergic α2B receptor (Homo sapiens, UniProt P18089); assay: Adrenergic α2B radioligand binding ([3H]Rauwolscine); conditions: 0.03 μM compound; 0.03 µM
T3 construct: expressed in transfected cells; host or cells: CHO-K1
T3 sequence (P18089 1-450): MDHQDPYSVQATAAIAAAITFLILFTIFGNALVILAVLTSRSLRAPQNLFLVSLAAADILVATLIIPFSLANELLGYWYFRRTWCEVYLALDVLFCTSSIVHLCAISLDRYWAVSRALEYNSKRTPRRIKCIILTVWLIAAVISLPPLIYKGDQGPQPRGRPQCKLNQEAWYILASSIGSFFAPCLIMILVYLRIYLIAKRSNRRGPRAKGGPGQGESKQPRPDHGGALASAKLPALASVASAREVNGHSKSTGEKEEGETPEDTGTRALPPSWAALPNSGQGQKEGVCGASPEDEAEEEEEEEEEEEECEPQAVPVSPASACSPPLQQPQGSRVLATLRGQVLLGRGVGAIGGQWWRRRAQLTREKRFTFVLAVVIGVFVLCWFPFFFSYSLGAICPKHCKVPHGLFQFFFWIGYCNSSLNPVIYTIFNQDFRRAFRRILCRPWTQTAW
Procedure: To evaluate in radioligand binding assays the activity of compounds of the invention, human recombinant adrenergic α2B receptor expressed in Chinese hamster ovary (CHO) K1 cells (Uhlen, S. et al, Eur. J. Pharmacol. 343(1):93, 1998) in a modified Tris-HCl buffer (50 mM Tris-HCl, pH 7.4, 12.5 mM MgCl2, 1 mM EDTA, 0.2% BSA) was used. Compounds of the invention were incubated with 2.5 nM [^3H]Rauwolscine for 60 min at 25° C. Non-specific binding was estimated in the presence of 10 μM Prazosin. Receptor proteins were filtered and washed, the filters were then counted to determine [^3H]Rauwolscine specifically bound. Compounds were screened at 1 μM or lower, using 1% DMSO as vehicle. Biochemical assay results are presented as the percent inhibition of specific binding in Table 3.

[4] = molecular target: T4, human recombinant histamine H1 receptor (Homo sapiens, UniProt P35367); assay: Histamine H1 radioligand binding ([3H]Pyrilamine); conditions: 0.1 μM compound; 0.1 µM
T4 construct: expressed in transfected cells; host or cells: CHO-K1
Procedure: To evaluate in radioligand binding assays the activity of compounds of the invention, human recombinant histamine H1 receptor expressed in Chinese hamster ovary (CHO) K1 cells (De Backer, M. et al, Biochem. Biophys. Res. Comm. 197(3):1601, 1993) in a modified Tris-HCl buffer (50 mM Tris-HCl, pH 7.4, 2 mM MgCl2, 100 mM NaCl, 250 mM Sucrose) was used. Compounds of the invention were incubated with 1.2 nM [^3H]Pyrilamine for 180 min at 25° C. Non-specific binding was estimated in the presence of 1 μM Pyrilamine. Receptor proteins were filtered and washed, the filters were then counted to determine [^3H]Pyrilamine specifically bound. Compounds were screened at 1 μM or lower, using 1% DMSO as vehicle. Biochemical assay results are presented as the percent inhibition of specific binding in Table 3.

T4 sequence (P35367 whole entry): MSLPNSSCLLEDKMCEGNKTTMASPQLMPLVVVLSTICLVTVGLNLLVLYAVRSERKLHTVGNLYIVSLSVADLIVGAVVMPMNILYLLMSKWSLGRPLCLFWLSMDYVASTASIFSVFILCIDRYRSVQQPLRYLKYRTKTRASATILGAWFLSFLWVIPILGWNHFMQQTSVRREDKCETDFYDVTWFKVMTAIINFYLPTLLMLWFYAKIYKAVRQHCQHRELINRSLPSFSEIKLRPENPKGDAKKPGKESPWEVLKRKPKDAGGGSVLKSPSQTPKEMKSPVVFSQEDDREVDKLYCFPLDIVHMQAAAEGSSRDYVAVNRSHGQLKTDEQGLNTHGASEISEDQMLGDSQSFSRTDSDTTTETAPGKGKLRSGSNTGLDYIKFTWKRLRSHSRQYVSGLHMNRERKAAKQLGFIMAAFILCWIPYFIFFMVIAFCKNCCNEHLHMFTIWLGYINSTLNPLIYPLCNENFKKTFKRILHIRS

Structure (SMILES) | Percentage inhibition of ligand binding, Adrenergic α1B [1] [%] | Percentage inhibition of ligand binding, Adrenergic α2A [2] [%] | Percentage inhibition of ligand binding, Adrenergic α2B [3] [%] | Binding data (Percentage inhibition) Histamine H1 (0.1 μM) [4] [%]
Cc1ccc2c(c1)c1c(n2CC2(O)CCc3ccccc32)CCN(C)C1 (single isomer, unassigned) [ii-111a] | 94 | 45 | 76 | 
Cc1ccc2c(c1)c1c(n2CC2(O)CCc3ccccc32)CCN(C)C1 (single isomer, unassigned) [ii-111b] | 51 | 22 | 0 | 
Cc1ccc2c(c1)c1c(n2CC2(O)CCCc3ccncc32)CCN(C)C1 (single isomer, unassigned) [ii-113b] | 82 | 8 | 68 | 6
